Our source for the IC50 and Ki values is ChEMBL document CHEMBL4706535, “The development of Coronavirus 3C-Like protease (3CL) inhibitors from 2010 to 2020” (Eur J Med Chem, 2020).

Molecules are shown by their SMILES.

Assay [1] can be described thus: Inhibition of SARS-CoV 3C-like protease (9970 to 10887 residues) expressed in Escherichia coli BL21(DE3) CodonPlus-RIL cells using Dabcyl-KTSAVLQSGFRKME-Edans fluorogenic peptide as substrate measured up to 60 mins by FRET method. Further details: species or system Severe acute respiratory syndrome-related coronavirus.
Assay [2] can be described thus: Inhibition of SARS-CoV 3C-like protease (3241 to 3546 residues) expressed in Pichia pastoris GS115 using Dabcyl-KTSAVLQSGFRKME-Edans fluorogenic peptide as substrate measured for 18 mins by fluorescence method. More on the design: species or system Severe acute respiratory syndrome-related coronavirus.
Assay [3] in a line: Inhibition of SARS-CoV-2 3c-like protease. More on the design: species or system Severe acute respiratory syndrome coronavirus 2.
Assay [4] is described as follows: Inhibition of SARS-CoV 3C-like protease (3241 to 3546 residues) expressed in Pichia pastoris GS115 using Dabcyl-KTSAVLQSGFRKME-Edans fluorogenic peptide as substrate measured for 18 mins by Lineweaver-burk plot based Dixon plot analysis. Further details: species or system Severe acute respiratory syndrome-related coronavirus.
Assay [5] can be described thus: Inhibition of His-tagged SARS-CoV 3c-like protease using Abz-SVTLQSG-Tyr(NO2)R as substrate by fluorometric assay. More on the design: species or system Severe acute respiratory syndrome-related coronavirus.
Assay [6] is described as follows: Inhibition of SARS-CoV-2 3c-like protease expressed in Escherichia coli by FRET-based cleavage assay. Further details: species or system Severe acute respiratory syndrome coronavirus 2.

For orientation: IC50 means the concentration needed to halve the response being measured. Low readings indicate greater potency in that assay, high ones weaker potency in that assay. The compound `C/C(=C\Cc1c(O)ccc(C(=O)/C=C/c2ccc(O)cc2)c1O)CCC(O)C(C)C` (stereo unspecified) gave an IC50 in assay [1] of 22.2 µM. This lies in the double-digit micromolar range.
`O=C(O[C@@H]1Cc2c(O)cc(O)cc2O[C@@H]1c1cc(O)c(O)c(O)c1)c1cc(O)c(O)c(O)c1` [EPIGALOCATECHIN GALLATE]: the IC50 in assay [2] came to 73 µM.
In assay [1], `COc1ccc(C(=O)/C=C/c2ccc(O)cc2)c(O)c1C/C=C(\C)CCC=C(C)C` [XANTHOANGELOL F] returned an IC50 of 34.1 µM.
Take `O=c1c(O)c(-c2ccc(O)c(O)c2)oc2cc(O)cc(O)c12` [QUERCETIN]: the IC50 in assay [2] came to 73 µM. In other words, the double-digit micromolar range.
Turning to `Oc1cc(O)cc(Oc2c(O)cc(O)c3c2Oc2c(O)cc4oc5c(Oc6cc(O)cc(O)c6)c(O)cc(O)c5c4c2O3)c1` [PHLOROFUCOFUROECKOL A], the IC50 in assay [3] came out at 16.7 µM. This counts as double-digit micromolar.
For `Oc1cc(O)cc(Oc2c(O)cc(O)c3c2Oc2c(O)cc(Oc4c(O)cc(O)cc4O)cc2O3)c1`, the IC50 in assay [3] stood at 42.1 µM.
`CCC(Cc1c(OC)ccc(C(=O)/C=C/c2ccc(O)cc2)c1O)OO` (stereo unspecified) registered an IC50 in assay [1] of 11.4 µM.
With `Oc1cc(O)cc(Oc2c(O)cc(O)c3c2Oc2c(O)cc(O)cc2O3)c1` [ECKOL], in assay [3], the half-inhibitory concentration (IC50) stood at 8.8 µM.
On the same count and under the same terms, the figure for `Oc1cc(O)cc(Oc2c(O)cc(O)c3c2Oc2c(O)cc(Oc4c(O)cc(Oc5c(O)cc(O)c6c5Oc5c(O)cc(O)cc5O6)cc4O)cc2O3)c1` [DIECKOL] is 2.7 µM; for `Oc1cc(O)c(Oc2cc(O)cc(O)c2Oc2cc(-c3c(O)cc(O)cc3O)c(O)cc2O)c(O)c1` it is 22.5 µM.
For orientation: Ki means the equilibrium dissociation constant of an inhibitor or competing ligand from its target. Read a high Ki as a looser hold on the target. Compound `O=C(O[C@@H]1Cc2c(O)cc(O)cc2O[C@H]1c1cc(O)c(O)c(O)c1)c1cc(O)c(O)c(O)c1` [GALLOCATECHIN GALLATE] displayed an IC50 in assay [2] of 47 µM. In addition, the affinity in assay [4] corresponds to a Ki of 25 µM.
The compound `Oc1cc(O)cc(Oc2c(Oc3c(O)cc(O)cc3O)cc(O)c3c2Oc2c(O)cc(O)cc2O3)c1` [2-PHLOROECKOL] gave an IC50 in assay [3] of 13.3 µM.
With `CC(=O)N[C@H](C(=O)N[C@H](C(=O)N[C@@H](CC(C)C)C(=O)N[C@@H](C[C@@H]1CCNC1=O)C(=O)Cn1[nH]c(=O)c2ccccc2c1=O)[C@@H](C)OCc1ccccc1)C(C)C`, the IC50 in assay [5] was 2.7 µM.
Regarding `O=C[C@H](C[C@@H]1CCNC1=O)NC(=O)[C@H](Cc1cccc(F)c1)NC(=O)c1cc2ccccc2[nH]1`, in assay [6], the IC50 came out at 0.04 µM.
As for `CC(=O)N[C@H](C(=O)N[C@H](C(=O)N[C@@H](CC(C)C)C(=O)N[C@@H](C[C@@H]1CCNC1=O)C(=O)Cn1[nH]c(=O)c2c([N+](=O)[O-])cccc2c1=O)[C@@H](C)OCc1ccccc1)C(C)C`, the IC50 in assay [5] was found to be 0.6 µM.
